This assay relates to murine neural precursor cells (neurosphere cultures). The assay is described as follows: HTS of LOPAC library against secondary neurosphere cultures, MTT proliferation assay at 3 μM, day 7 (z score, P value). In kind it is cell-based, mouse. (In general: Tetrazolium dyes change colour on reduction, which living cells bring about.)
Setting [1] is: LOPAC screen, neurosphere MTT proliferation, 3 μM, day 7.
The mark [2] stands for this setting: yes/no: significantly inhibited neurosphere proliferation (P<0.01) in primary screen.
[3] abbreviates: yes/no: significantly inhibited neurosphere proliferation in primary screen.
Setting [4] is: LOPAC library screen, 3 μM, MTT, neurosphere cultures.
Where [5] appears, read: LOPAC primary screen, neurosphere MTT proliferation, 3 μM, day 7.
[6] abbreviates: LOPAC library screen, 3 μM, MTT, secondary neurosphere cultures, day 7.
The mark [7] stands for this setting: LOPAC library screen at 3 μM, secondary neurosphere cultures, MTT.
The mark [8] stands for this setting: yes = significantly inhibited neurosphere proliferation (P<0.01) in the primary screen.
[9] abbreviates: LOPAC library screen at 3 μM, MTT, secondary neurosphere cultures, screened in singlets.
Where [10] appears, read: yes/no: significantly inhibited neurosphere proliferation (P<0.01) in the primary screen.

The structures appear in SMILES notation. Counter-ions that a name gives are not always drawn. Like-named read-outs stand apart in the source and are kept apart here.

As for `CC(COc1ccccc1)N(CCCl)Cc1ccccc1` (centres unmarked) [Phenoxybenzamine hydrochloride], the “Z Score” value is given as −1.512. The Z score under setting [1] is reported as −1.512. Besides, the Activity result under setting [2] is recorded as “no”.

On to `Cc1ccc(N(CC2=NCCN2)c2cccc(O)c2)cc1` [Phentolamine mesylate], for which, for the setting “168 h, 3 µM”, the “Z Score” value was −0.3191 and the Z score is reported as −0.319. Moreover, the Activity result under setting [3] is “no”.

On to `CCCCC1C(=O)N(c2ccccc2)N(c2ccccc2)C1=O` [Phenylbutazone], for which the “Z Score” value under setting [4] turned out to be 0.7902. This compound had a Z score under setting [5] of 0.790.

For the compound `CNC[C@H](O)c1cccc(O)c1` [Phenylephrine hydrochloride], the Activity result is reported as “no”. In addition, the “Z Score” value under setting [6] is recorded as −1.257. The compound also gave a Z score under setting [5] of −1.257.

Turning to `O=C1NC(=O)C(c2ccccc2)(c2ccccc2)N1` [Phenytoin sodium], the “Z Score” value under setting [7] was −0.2166. Besides, under setting [1], the Z score is given as −0.217. Also, the Activity entry under setting [2] was “no”.

Regarding `O=C(CCc1ccc(O)cc1)c1c(O)cc(O)cc1O` [Phloretin], under “168 h, 3 µM”, the “Z Score” value is 0.9165 and the Z score was determined as 0.916.

As to `CCCCCCCCCCCCCC(=O)O[C@@H]1[C@@H](C)[C@@]2(O)[C@@H](C=C(CO)C[C@]3(O)C(=O)C(C)=C[C@@H]23)[C@@H]2C(C)(C)[C@]12OC(C)=O` [Phorbol 12-myristate 13-acetate], the “Z Score” value is given as −0.265. Under setting [5], this compound yielded a Z score of −0.265. Further, the Activity entry under setting [3] is recorded as “no”.

With `C[C@@H]1O[C@@H]1P(=O)([O-])[O-].[Na+].[Na+]` [Phosphomycin disodium], the “Z Score” value under setting [6] is on record as −1.402. Under setting [5], this compound came in with a Z score of −1.402. Besides, the Activity entry under setting [8] is “no”.

As to `O=C(O)CP(=O)(O)O` [Phosphonoacetic acid], the “Z Score” value under setting [7] is recorded as −0.8885. Further, under setting [5], the Z score is −0.888. Under setting [3], the Activity entry is on record as “no”.

Take `CC(C)C[C@H](NP(=O)(O)O[C@@H]1O[C@@H](C)[C@H](O)[C@@H](O)[C@H]1O)C(=O)N[C@@H](Cc1c[nH]c2ccccc12)C(=O)O` [Phosphoramidon disodium]: under “168 h, 3 µM”, the “Z Score” value is −0.5097 and the Z score was −0.510. Further, the Activity entry under setting [3] was “no”.

In the case of `NC(=O)c1ccccc1C(=O)N[C@@H](CCC(=O)O)C(=O)O.[Na].[Na].[Na]` [Phthalamoyl-L-glutamic acid trisodium], for the setting “168 h, 3 µM”, the “Z Score” value is recorded as 0.2509 and the Z score amounted to 0.251. Moreover, the Activity entry under setting [3] is “no”.

On to `Oc1cc(O)cc(/C=C/c2ccc(O)c(O)c2)c1` [Piceatannol], for which, for the setting “168 h, 3 µM”, the “Z Score” value came out at 0.5958 and the Z score amounted to 0.596.

With `COc1ccc(C(=O)NCc2cccnc2)cc1C(=O)NCc1cccnc1` [Picotamide], the “Z Score” value under setting [9] is 1.736. The same compound displayed a Z score under setting [5] of 1.736. For the same compound, the Activity result under setting [3] is listed as “no”.

On to `CC[C@@H]1C(=O)OC[C@@H]1Cc1cncn1C` [Pilocarpine nitrate], for which, under “168 h, 3 µM”, the “Z Score” value is reported as −1.213 and the Z score is reported as −1.213. Moreover, the Activity result under setting [8] was “no”.

Consider `O=c1[nH]c2ccccc2n1C1CCN(CCCC(c2ccc(F)cc2)c2ccc(F)cc2)CC1` [Pimozide], for which, under setting [7], the “Z Score” value is listed as −0.2323. This compound also returned a Z score under setting [5] of −0.232.

Turning to `CC(N/C(=N\C#N)Nc1ccncc1)C(C)(C)C` (centres unmarked) [Pinacidil], under setting [6], the “Z Score” value is given as −2.117. Besides, the Z score under setting [5] is −2.117. The Activity entry under setting [3] is “no”.

Regarding `CC(C)NCC(O)COc1cccc2[nH]ccc12` (centres unmarked) [Pindolol], the “Z Score” value under setting [4] is on record as −0.07895. Under setting [5], this compound returned a Z score of −0.079. Also, the Activity result under setting [3] is listed as “no”.

Regarding `O=S(=O)(O)C1CCNCC1` [Piperidine-4-sulphonic acid], for the setting “168 h, 3 µM”, the “Z Score” value is recorded as −0.4238 and the Z score is listed as −0.424. Also, the Activity result under setting [3] is listed as “no”.

With `NC(=O)CN1CCCC1=O` [Piracetam], the “Z Score” value under setting [7] was −0.3758. Moreover, the Z score under setting [5] was −0.376. The Activity result under setting [8] is recorded as “no”.

For the compound `Cc1nc2ccccn2c(=O)c1CCN1CCC(C(=O)c2ccc(F)cc2)CC1` [Pirenperone], under setting [4], the “Z Score” value stood at 0.2279. The Z score under setting [5] is listed as 0.228. The Activity result under setting [10] is given as “no”.

With `CN1CCN(CC(=O)N2c3ccccc3C(=O)Nc3cccnc32)CC1` [Pirenzepine dihydrochloride], the Z score (168 h, 3 µM) is −0.545. Also, under setting [3], the Activity result is given as “no”.

As for `CN1CCN(CC(=O)N2c3ccccc3C(=O)Nc3cccnc32)CC1.Cl.Cl` [Pireuzepine dihydrochloride], the “Z Score” value is on record as −0.545.

`Cc1ccc(=O)n(-c2ccccc2)c1` [Pirfenidone]: the “Z Score” value under setting [6] was −1.482. The Z score under setting [5] was −1.482. Besides, under setting [3], the Activity entry is given as “no”.

As to `CN1C(C(=O)Nc2ccccn2)=C(O)c2ccccc2S1(=O)=O` [Piroxicam], the “Z Score” value under setting [4] is listed as 0.2527. This compound registered a Z score under setting [5] of 0.253. Moreover, under setting [8], the Activity entry is listed as “no”.

Turning to `COc1cc([C@@H]2c3cc4c(cc3[C@H](O)[C@H]3COC(=O)[C@H]23)OCO4)cc(OC)c1OC` [Podophyllotoxin], the “Z Score” value is on record as −11.15. Moreover, the Z score under setting [5] is −11.147. Moreover, the Activity result under setting [10] was “yes”.

As for `O=C(C1CCCCC1)N1CC(=O)N2CCc3ccccc3C2C1` (centres unmarked) [Praziquantel], the “Z Score” value under setting [6] is given as −2.296. Further, the Z score under setting [5] is listed as −2.296. In addition, under setting [8], the Activity entry is listed as “no”.

On to `COc1cc2nc(N3CCN(C(=O)c4ccco4)CC3)nc(N)c2cc1OC` [Prazosin hydrochloride], for which the Activity result was “yes”. Further, the “Z Score” value under setting [6] is recorded as −2.902. Besides, the Z score under setting [5] is on record as −2.902.

For the compound `CC(=O)[C@H]1CC[C@H]2[C@@H]3CC=C4C[C@@H](OS(=O)(=O)[O-])CC[C@]4(C)[C@H]3CC[C@]12C.[Na+]` [Pregnenolone sulfate sodium], the “Z Score” value under setting [9] came to 2.653. Further, the Z score under setting [5] is listed as 2.653. Moreover, the Activity result under setting [3] was “no”.

In the case of `CCCNC(C)C(=O)Nc1ccccc1C` (centres unmarked) [Prilocaine hydrochloride], under setting [9], the “Z Score” value came out at 1.509. Besides, the Z score under setting [5] is recorded as 1.509. Moreover, the Activity entry under setting [3] is recorded as “no”.

`CCC1(c2ccccc2)C(=O)NCNC1=O` [Primidone]: the Activity result is recorded as “no”. The “Z Score” value under setting [4] worked out at 0.6187. Under setting [5], this compound registered a Z score of 0.619.

Turning to `CCN(CC)CCNC(=O)c1ccc(N)cc1` [Procainamide hydrochloride], the “Z Score” value under setting [4] amounted to 0.6535. The same compound returned a Z score under setting [5] of 0.654. The Activity entry under setting [10] was “no”.

Regarding `CCN(CC)CCOC(=O)c1ccc(N)cc1` [Procaine hydrochloride], the “Z Score” value under setting [4] came out at 0.5501. This compound also registered a Z score under setting [5] of 0.550. The Activity entry under setting [10] is on record as “no”.

Turning to `CN1CCN(CCCN2c3ccccc3Sc3ccc(Cl)cc32)CC1` [Prochlorperazine dimaleate], where the note is “168 h, 3 µM”, the “Z Score” value is reported as −0.8602 and the Z score is listed as −0.860. The Activity entry under setting [10] is on record as “no”.

`CC(=O)[C@H]1CC[C@H]2[C@@H]3CCC4=CC(=O)CC[C@]4(C)[C@H]3CC[C@]12C` [Progesterone]: the “Z Score” value under setting [4] amounted to 0.4252. Also, the Z score under setting [5] was 0.425. The Activity entry under setting [3] is “no”.

For `CCCN(CCC)C(=O)C(CCC(=O)O)NC(=O)c1ccccc1` (centres unmarked) [Proglumide], the “Z Score” value under setting [6] is recorded as −1.907. This compound had a Z score under setting [5] of −1.907. Moreover, under setting [8], the Activity result is recorded as “no”.

In the case of `CN(C)CCCN1c2ccccc2Sc2ccccc21` [Promazine hydrochloride], the “Z Score” value under setting [7] is listed as −0.8882. Besides, under setting [5], the Z score is recorded as −0.888. Also, the Activity entry under setting [10] was “no”.

For `CC(CN1c2ccccc2Sc2ccccc21)N(C)C` (centres unmarked) [Promethazine hydrochloride], the “Z Score” value under setting [4] is 0.4746. In addition, the Z score under setting [5] came to 0.475. Moreover, the Activity result under setting [10] was “no”.

In the case of `CCCNCC(O)COc1ccccc1C(=O)CCc1ccccc1` (centres unmarked) [Propafenone hydrochloride], the “Z Score” value under setting [7] is listed as −0.9673. For the same compound, the Z score under setting [5] is −0.967. The Activity entry under setting [8] is given as “no”.

`CC(C)[N+](C)(CCOC(=O)C1c2ccccc2Oc2ccccc21)C(C)C` [Propantheline bromide]: where the note is “168 h, 3 µM”, the “Z Score” value was −1.534 and the Z score was −1.534. Besides, under setting [3], the Activity result was “no”.

Take `CCCn1cnc2c1c(=O)n(CCCCC(C)=O)c(=O)n2C` [Propentofylline]: the “Z Score” value under setting [4] worked out at 0.1563. For the same compound, the Z score under setting [5] is recorded as 0.156. Under setting [3], the Activity entry is “no”.

Turning to `CCC(=O)c1ccc2c(c1)N(CCCN(C)C)c1ccccc1S2` [Propionylpromazine hydrochloride], the “Z Score” value under setting [6] is reported as −1.584. Under setting [5], this compound had a Z score of −1.584. Besides, the Activity entry under setting [10] is recorded as “no”.

Take `CC(C)c1cccc(C(C)C)c1O` [Propofol]: the Activity entry was “no”, the “Z Score” value worked out at 0.3768 and the Z score is listed as 0.377.

Turning to `C=CC1=C(C)c2cc3[nH]c(cc4nc(cc5[nH]c(cc1n2)c(C)c5CCC(=O)O)C(CCC(=O)O)=C4C)c(C)c3C=C` [Protoporphyrin IX disodium], for the setting “168 h, 3 µM”, the “Z Score” value was −3.441 and the Z score is −3.441. Further, the Activity entry under setting [8] is listed as “yes”.

Turning to `CNCCCC1c2ccccc2C=Cc2ccccc21` [Protriptyline hydrochloride], the “Z Score” value under setting [4] is 0.7603. This compound displayed a Z score under setting [5] of 0.760. In addition, the Activity entry under setting [3] is on record as “no”.

Turning to `CC(C)[C@H](CO)Nc1nc(Nc2cccc(Cl)c2)c2ncn(C(C)C)c2n1` [Purvalanol A], the “Z Score” value under setting [6] is recorded as −11.23. This compound also yielded a Z score under setting [5] of −11.234. Also, under setting [10], the Activity result is recorded as “yes”.

(Values after patent US8058243B2, “Method for treating a brain cancer with ifenprodil” (HSC Research and Development Limited Partnership, priority 2006, dated 2011).)
